Data on three compounds can be found in PubChem BioAssay (NCI).

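How tested: cells in 96-well plates exposed to compound for 48 hours at five concentrations. The concentration for 50% growth inhibition is given as GI50. TGI denotes the concentration required for complete inhibition of growth.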

Among the test systems are BT-549 breast; HOP-62 NSCLC; K-562 leukemia; M14 melanoma; NCI/ADR-RES ovarian; OVCAR-5 ovarian; SF-539 CNS; SN12C renal; SNB-19 CNS; UACC-62 melanoma.
Holding throughout (experiment): growth of human tumour cells (NCI), 48 h

In the case of `COc1cc(C#Cc2ccc(=O)oc2C#Cc2ccccc2)cc(OC)c1OC`, the GI50 in the assay on BT-549 breast was 1.97 µM; with HOP-62 NSCLC, 12.2 µM; in the assay on K-562 leukemia it was 3.67 µM; in the assay on M14 melanoma, 2.38 µM; with NCI/ADR-RES ovarian, 6.39 µM; with OVCAR-5 ovarian, 5.74 µM. For the same compound, the GI50 in the assay on SF-539 CNS was 3.58 µM; in the assay on SN12C renal, 1.75 µM; with SNB-19 CNS it was 8.91 µM; in the assay on UACC-62 melanoma, 3.89 µM. For the same compound, the TGI is 4.21 µM with BT-549 breast; 30.9 µM in the assay with HOP-62 NSCLC; greater than 40.4 µM in the assay on K-562 leukemia; 5.98 µM in the assay with M14 melanoma; 18.9 µM with NCI/ADR-RES ovarian; 12.1 µM in the assay with OVCAR-5 ovarian. For the same compound, the TGI with SF-539 CNS amounted to 11.3 µM; in the assay on SN12C renal, 3.5 µM; in the assay on SNB-19 CNS it was 34.3 µM; in the assay with UACC-62 melanoma, 9.18 µM.

Regarding `O=C(CO[N+](=O)[O-])Nc1ccc(C(=O)/C=C/c2ccc(Cl)cc2)cc1`, the GI50 in the assay with BT-549 breast was 1.86 µM; in the assay on HOP-62 NSCLC, 3.11 µM; in the assay with K-562 leukemia it was 2.6 µM; with M14 melanoma, 2.05 µM; in the assay on NCI/ADR-RES ovarian, 3.87 µM; in the assay on OVCAR-5 ovarian, 14.8 µM. The GI50 in the assay with SF-539 CNS is 2.52 µM; in the assay with SN12C renal it was 3.14 µM; in the assay with SNB-19 CNS it was 4.11 µM; in the assay with UACC-62 melanoma, 2.76 µM. For the same compound, the TGI is 5 µM in the assay on BT-549 breast; 9.73 µM with HOP-62 NSCLC; greater than 100 µM in the assay with K-562 leukemia; 4.96 µM in the assay on M14 melanoma; greater than 100 µM with NCI/ADR-RES ovarian; 36 µM with OVCAR-5 ovarian. The TGI was 8.81 µM with SF-539 CNS, 14.1 µM in the assay with SN12C renal, 18.4 µM in the assay on SNB-19 CNS and 11 µM in the assay on UACC-62 melanoma.

Consider `CC(C(=O)c1ccccc1)C(c1ccccc1)N1CCOCC1` (stereo not given), for which the TGI in the assay on BT-549 breast, with HOP-62 NSCLC, in the assay with K-562 leukemia, in the assay with M14 melanoma, in the assay with NCI/ADR-RES ovarian and with OVCAR-5 ovarian was greater than 100 µM in each case. Moreover, the TGI in the assay on SF-539 CNS, in the assay on SN12C renal, in the assay with SNB-19 CNS and in the assay with UACC-62 melanoma was greater than 100 µM in each case.
